Measured values from the supplement of paper PMC10307832.

How the values were obtained:
Assay in all cases: relative viability (nuclei count vs DMSO), 5 days (fraction); higher = more cells survive
[1] = compound: CC1=CC=C(C=C1)C(=O)CN2C3=C(CCCC3)SC2=N [Pifithrin_alpha] + CC1(C)CCC(c2ccc(Cl)cc2)=C(CN2CCN(c3ccc(C(=O)NS(=O)(=O)c4ccc(N[C@H](CCN5CCOCC5)CSc5ccccc5)c(S(=O)(=O)C(F)(F)F)c4)cc3)CC2)C1 [Navitoclax] (partner 0.5 µM)
Method in brief: (§1)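 For relative viability, nuclei counts in treated wells were divided by those in vehicle wells. Lung cancer cell lines had been pin-tool dosed in 1536-well plates the day after seeding and cultured for 5 days, then fixed and stained in one step (final 0.05% Triton X-100, 1% formaldehyde, 1 ug/ml Hoechst) and imaged at 4×. Doses were one drug alone or a fixed anchor-drug dose plus five library-drug doses (not always all listed) in √10 steps, and values are duplicate-plate medians.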

Bemcentinib + Navitoclax = compound: Nc1nc(Nc2ccc3c(c2)CC[C@@H](N2CCCC2)CC3)nn1-c1cc2c(nn1)-c1ccccc1CCC2 [Bemcentinib] + CC1(C)CCC(c2ccc(Cl)cc2)=C(CN2CCN(c3ccc(C(=O)NS(=O)(=O)c4ccc(N[C@H](CCN5CCOCC5)CSc5ccccc5)c(S(=O)(=O)C(F)(F)F)c4)cc3)CC2)C1 [Navitoclax] (partner 0.5 µM)
Method in brief: as §1

Bemcentinib + Tozasertib = compound: Nc1nc(Nc2ccc3c(c2)CC[C@@H](N2CCCC2)CC3)nn1-c1cc2c(nn1)-c1ccccc1CCC2 [Bemcentinib] + Cc1cc(Nc2cc(N3CCN(C)CC3)nc(Sc3ccc(NC(=O)C4CC4)cc3)n2)n[nH]1 [Tozasertib] (partner 0.1 µM)
Method in brief: as §1

Bemcentinib + Alpelisib = compound: Nc1nc(Nc2ccc3c(c2)CC[C@@H](N2CCCC2)CC3)nn1-c1cc2c(nn1)-c1ccccc1CCC2 [Bemcentinib] + Cc1nc(NC(=O)N2CCC[C@H]2C(N)=O)sc1-c1ccnc(C(C)(C)C(F)(F)F)c1 [Alpelisib] (partner 2 µM)
Method in brief: as §1

Cell Line	relative viability ([1]; first compound 1 µM)	relative viability ([1]; first compound 3.162 µM)	relative viability ([1]; first compound 10 µM)	relative viability ([1]; first compound 31.62 µM)	relative viability ([1]; first compound 100 µM)	relative viability (Bemcentinib + Navitoclax; first compound 0.04 µM)	relative viability (Bemcentinib + Navitoclax; first compound 0.1265 µM)	relative viability (Bemcentinib + Navitoclax; first compound 0.4 µM)	relative viability (Bemcentinib + Navitoclax; first compound 1.265 µM)	relative viability (Bemcentinib + Navitoclax; first compound 4 µM)	relative viability (Bemcentinib + Tozasertib; first compound 0.04 µM)	relative viability (Bemcentinib + Tozasertib; first compound 0.1265 µM)	relative viability (Bemcentinib + Tozasertib; first compound 0.4 µM)	relative viability (Bemcentinib + Tozasertib; first compound 1.265 µM)	relative viability (Bemcentinib + Tozasertib; first compound 4 µM)	relative viability (Bemcentinib + Alpelisib; first compound 0.04 µM)	relative viability (Bemcentinib + Alpelisib; first compound 0.1265 µM)	relative viability (Bemcentinib + Alpelisib; first compound 0.4 µM)	relative viability (Bemcentinib + Alpelisib; first compound 1.265 µM)	relative viability (Bemcentinib + Alpelisib; first compound 4 µM)
NCI-H2126	0.787	0.8	0.73	0.738	0.771	0.835	0.929	0.892	0.869	0.833	0.896	0.822	0.788	0.856	0.837	0.799	0.772	0.669	0.768	0.786
NCI-H2170	0.557	0.512	0.576	0.494	0.535	0.701	0.636	0.627	0.675	0.638	0.73	0.764	0.763	0.658	0.644	0.844	0.766	0.842	1.01	0.882
NCI-H2228	0.88	0.839	0.804	0.599	0.729		1.06	1.15	0.909	1.08	0.182	0.249	0.216	0.251	0.271		0.636	0.881	0.809	0.959
NCI-H2347	0.695	0.87	0.786	0.551	0.814	0.741	0.862	0.864	0.918	0.966	0.56	0.602	0.525	0.593	0.72	1.14	1.08	1.07	1.1	0.974
NCI-H2405		0.81	0.813	0.635	0.689	0.788	0.868	0.859	0.877	0.84	0.733	0.783	0.702	0.74	0.671	0.728	0.732	0.847	0.756	0.72
NCI-H3122	1.03	1.02	1.03	0.845	1.05	1.01	1.06	1.02	1	1.03		0.488	0.402	0.427	0.381	0.447	0.825	0.829	0.819	0.82
PC-3 [JPC-3]	0.749	0.74	0.746	0.789	0.726	0.803	0.827	0.865	0.848	0.826	0.852	0.927	0.897	0.941	0.863	0.986	1.1	0.985	1.1	1.08
PC-14	1.01	0.988	0.988	0.881	0.847	1.07	1.12	1.16	1.05	0.997	0.584	0.706	0.538	0.645	0.601	0.995	1.01	0.925	0.985	1.04
RERF-LC-KJ	0.591	0.619	0.5	0.824	0.412	0.815	0.805	0.983	1.01	0.947	0.557	0.531	0.485	0.553	0.466	0.748	0.785	0.91	0.859	0.919
SK-LU-1	1.07	1.07	1.07	0.626	0.823	0.867	0.986	0.894	0.807	0.615	0.342	0.363	0.283	0.367	0.335	1.08	1.13	1.1	1.1	1.1
SK-MES-1	1.19	1.17	1.16	0.829	0.924	1.25	1.22	1.36	1.49	1.47	0.977	0.908	1.09	1.03	0.968	0.914	0.973	0.998	1.08	1.08
SW 1573	1.06	1.03	1.18	0.923	0.893	0.868	0.979	1.09	1.18	0.97	0.18	0.166	0.174	0.129	0.194	0.716	0.803	0.909	0.886	0.88
UMC-11	0.288	0.312	0.312	0.337	0.331	0.274	0.327	0.34	0.317	0.307	0.214	0.192	0.2	0.198	0.204	1.08	1.19	1.11	0.968	1.05
